According to publication PMC12198282, “Application of a high-density microelectrode array assay using a 3D human iPSC-derived brain microphysiological system model for in vitro neurotoxicity screening of environmental compounds” (Archives of Toxicology, 2025):
“Also recorded” adds a separate entry of the source. Read-outs that look alike come from different tables or passages of the source. Marks after values point to notes of the source that are not given here.

Columns and labels:
2D rat cortical cultures = conditions: cited from earlier work
BrainSpheres = assay: Cytotoxicity evaluation, resazurin assay (BrainSphere.Cyto); type: cell-based, human; conditions: for AC50: read-out: ac50 BrainSphere.Cyto; for hitc BrainSphere.Cyto: key: 1 (active); 0 (inactive)
Procedure: For the resazurin assay, BrainSpheres were cultured for 7 weeks in non-treated 6-well plates under gyratory shaking. Subsequently, the cells were exposed in the same manner as the HD-MEA plates. This assay was used to determine cell viability after exposure for 13 days to the different compounds. After exposure, resazurin diluted in PBS was added directly to the 6-well plates to a final concentration of 0.1 mg/ml. The plates were then put in an incubator for 3 h at 37 °C, 5% CO2. Then, 100 µl of the media was collected and transferred in a 96-well plate for fluorescence analysis, which was done at ex:530 nm/em:590 nm in a multi-well fluorometric reader CytoFluor series 4000 (PerSeptive Biosystems, Inc).
Ten metrics were measured to evaluate changes in neural activity in the BrainSphere MEA assay (Table 3). Considering the complexity of the data which includes seven recording days for each single ROI in a well, an area under the curve (AUC) metric was used to reduce activity across time as described in previous publications (Brown et al. [2016]; Frank et al. [2017b]; Shafer et al. [2019]). […] For concentration–response modeling, the mean AUC values across all the BrainSpheres per well (technical replicates) was computed for each endpoint, such that each concentration included biological replicates from at least three separate wells on three separate plates, representing each individual experiment. The mean AUC values were used for concentration–response modeling using the R package tcplfit2 (version 0.1.6) (Sheffield et al. [2022]). Data were normalized as a percent of vehicle control wells by plate using the equation: resp.pc=rval-bval/bval×100 where resp.pc is the percent of control value, rval is the response value, and bval is the baseline value (defined as the mean of the vehicle control and the lowest tested concentration). […] The activity cutoff was defined as 3 times the median absolute deviation (bmad) of baseline values. A curve was defined as ‘active’ if the continuous hit call was ≥ 0.9. See Supplemental Table 1 for the bmad, activity cutoff threshold, SD, and benchmark response for each endpoint in the BrainSphere MEA. Potency was defined as the concentration at 50% maximal activity (AC50 log10 µM).

[1] = rNFA mc5 hit call, aenm active_electrodes_number
[2] = rNFA mc5 hit call, aenm burst_duration_mean
[3] = rNFA mc5 hit call, aenm burst_rate
[4] = rNFA mc5 hit call, aenm bursting_electrodes_number
[5] = rNFA mc5 hit call, aenm correlation_coefficient_mean
[6] = rNFA mc5 hit call, aenm firing_rate_mean
[7] = rNFA mc5 hit call, aenm inter_network_spike_interval_mean
[8] = rNFA mc5 hit call, aenm interburst_interval_mean
[9] = rNFA mc5 hit call, aenm mutual_information_norm
[10] = rNFA mc5 hit call, aenm network_spike_duration_std
[11] = rNFA mc5 hit call, aenm network_spike_number
[12] = rNFA mc5 hit call, aenm network_spike_peak
[13] = rNFA mc5 hit call, aenm per_burst_interspike_interval
[14] = rNFA mc5 hit call, aenm per_burst_spike_percent
[15] = rNFA mc5 hit call, aenm per_network_spike_spike_number_mean
[16] = rNFA mc5 hit call, aenm per_network_spike_spike_percent
[17] = rNFA mc5 hit call, aenm spike_duration_mean
[18] = ref Brown et al. [2016], Carstens et al. [2022], Frank et al. [2017b], Shafer et al. [2019], ToxCast invitrodb (v4.2)
[19] = Homo sapiens, 312 h, resazurin, day 13, Supplement 3 prints it also for curves with hit call 0
Throughout, for hitc CCTE Shafer MEA dev active electrodes number: key: 1 (active); 0 (inactive).
Throughout, for hitc CCTE Shafer MEA dev burst duration mean: key: 1 (active); 0 (inactive).
Throughout, for hitc CCTE Shafer MEA dev burst rate: key: 1 (active); 0 (inactive).
Throughout, for hitc CCTE Shafer MEA dev bursting electrodes number: key: 1 (active); 0 (inactive).
Throughout, for hitc CCTE Shafer MEA dev correlation coefficient mean: key: 1 (active); 0 (inactive).
Throughout, for hitc CCTE Shafer MEA dev firing rate mean: key: 1 (active); 0 (inactive).
Throughout, for hitc CCTE Shafer MEA dev inter network spike interval mean: key: 1 (active); 0 (inactive).
Throughout, for hitc CCTE Shafer MEA dev interburst interval mean: key: 1 (active); 0 (inactive).
Throughout, for hitc CCTE Shafer MEA dev mutual information norm: key: 1 (active); 0 (inactive).
Throughout, for hitc CCTE Shafer MEA dev network spike duration std: key: 1 (active); 0 (inactive).
Throughout, for hitc CCTE Shafer MEA dev network spike number: key: 1 (active); 0 (inactive).
Throughout, for hitc CCTE Shafer MEA dev network spike peak: key: 1 (active); 0 (inactive).
Throughout, for hitc CCTE Shafer MEA dev per burst interspike interval: key: 1 (active); 0 (inactive).
Throughout, for hitc CCTE Shafer MEA dev per burst spike percent: key: 1 (active); 0 (inactive).
Throughout, for hitc CCTE Shafer MEA dev per network spike spike number mean: key: 1 (active); 0 (inactive).
Throughout, for hitc CCTE Shafer MEA dev per network spike spike percent: key: 1 (active); 0 (inactive).
Throughout, for hitc CCTE Shafer MEA dev spike duration mean: key: 1 (active); 0 (inactive).

## CCCC(CCC)C(=O)O [Sodium valproate]
2D rat cortical cultures; of 17 MEA endpoints, ref Brown et al. [2016], Carstens et al. [2022], Frank et al. [2017b], Shafer et al. [2019], ToxCast invitrodb (v4.2)
  Number of active endpoints in the rNFA: two
2D rat cortical cultures; rNFA mc5, aenm per_network_spike_spike_number_mean, read-out: ac50 CCTE_Shafer_MEA_dev_per_network_spike_spike_number_mean
  AC50: 576000 nM
2D rat cortical cultures; rNFA mc5, aenm per_network_spike_spike_percent, read-out: ac50 CCTE_Shafer_MEA_dev_per_network_spike_spike_percent
  AC50: 488000 nM
2D rat cortical cultures; [1]
  hitc CCTE_Shafer_MEA_dev_active_electrodes_number: 0
2D rat cortical cultures; [2]
  hitc CCTE_Shafer_MEA_dev_burst_duration_mean: 0
2D rat cortical cultures; [3]
  hitc CCTE_Shafer_MEA_dev_burst_rate: 0
2D rat cortical cultures; [4]
  hitc CCTE_Shafer_MEA_dev_bursting_electrodes_number: 0
2D rat cortical cultures; [5]
  hitc CCTE_Shafer_MEA_dev_correlation_coefficient_mean: 0
2D rat cortical cultures; [6]
  hitc CCTE_Shafer_MEA_dev_firing_rate_mean: 0
2D rat cortical cultures; [7]
  hitc CCTE_Shafer_MEA_dev_inter_network_spike_interval_mean: 0
2D rat cortical cultures; [8]
  hitc CCTE_Shafer_MEA_dev_interburst_interval_mean: 0
2D rat cortical cultures; [9]
  hitc CCTE_Shafer_MEA_dev_mutual_information_norm: 0
2D rat cortical cultures; [10]
  hitc CCTE_Shafer_MEA_dev_network_spike_duration_std: 0
2D rat cortical cultures; [11]
  hitc CCTE_Shafer_MEA_dev_network_spike_number: 0
2D rat cortical cultures; [12]
  hitc CCTE_Shafer_MEA_dev_network_spike_peak: 0
2D rat cortical cultures; [13]
  hitc CCTE_Shafer_MEA_dev_per_burst_interspike_interval: 0
2D rat cortical cultures; [14]
  hitc CCTE_Shafer_MEA_dev_per_burst_spike_percent: 0
2D rat cortical cultures; [15]
  hitc CCTE_Shafer_MEA_dev_per_network_spike_spike_number_mean: 1
2D rat cortical cultures; [16]
  hitc CCTE_Shafer_MEA_dev_per_network_spike_spike_percent: 1
2D rat cortical cultures; [17]
  hitc CCTE_Shafer_MEA_dev_spike_duration_mean: 0
2D rat cortical cultures; [18]
  Concentrations at which active in the rNFA: exceeding 450 µM
BrainSpheres; [19]
  AC50: 45000 nM
BrainSpheres; human
  BMD BrainSphere.Cyto: 117 µM
  Cytotoxicity hit: 0
  hitc BrainSphere.Cyto: 0

## CC1(C)S[C@@H]2[C@H](NC(=O)[C@H](N)c3ccc(O)cc3)C(=O)N2[C@H]1C(=O)O [Amoxicillin]
2D rat cortical cultures; [1]
  hitc CCTE_Shafer_MEA_dev_active_electrodes_number: 0
2D rat cortical cultures; [2]
  hitc CCTE_Shafer_MEA_dev_burst_duration_mean: 0
2D rat cortical cultures; [3]
  hitc CCTE_Shafer_MEA_dev_burst_rate: 0
2D rat cortical cultures; [4]
  hitc CCTE_Shafer_MEA_dev_bursting_electrodes_number: 0
2D rat cortical cultures; [5]
  hitc CCTE_Shafer_MEA_dev_correlation_coefficient_mean: 0
2D rat cortical cultures; [6]
  hitc CCTE_Shafer_MEA_dev_firing_rate_mean: 0
2D rat cortical cultures; [7]
  hitc CCTE_Shafer_MEA_dev_inter_network_spike_interval_mean: 0
2D rat cortical cultures; [8]
  hitc CCTE_Shafer_MEA_dev_interburst_interval_mean: 0
2D rat cortical cultures; [9]
  hitc CCTE_Shafer_MEA_dev_mutual_information_norm: 0
2D rat cortical cultures; [10]
  hitc CCTE_Shafer_MEA_dev_network_spike_duration_std: 0
2D rat cortical cultures; [11]
  hitc CCTE_Shafer_MEA_dev_network_spike_number: 0
2D rat cortical cultures; [12]
  hitc CCTE_Shafer_MEA_dev_network_spike_peak: 0
2D rat cortical cultures; [13]
  hitc CCTE_Shafer_MEA_dev_per_burst_interspike_interval: 0
2D rat cortical cultures; [14]
  hitc CCTE_Shafer_MEA_dev_per_burst_spike_percent: 0
2D rat cortical cultures; [15]
  hitc CCTE_Shafer_MEA_dev_per_network_spike_spike_number_mean: 0
2D rat cortical cultures; [16]
  hitc CCTE_Shafer_MEA_dev_per_network_spike_spike_percent: 0
2D rat cortical cultures; [17]
  hitc CCTE_Shafer_MEA_dev_spike_duration_mean: 0
2D rat cortical cultures; [18]
  Bioactivity in the rNFA (in words): negative in the rNFA; also recorded: inactive in the rNFA; also recorded: inactivity across all metrics in both models
BrainSpheres; [19]
  AC50: 45000 nM
BrainSpheres; human
  Cytotoxicity hit: 0
BrainSpheres; resazurin, day 13, tcplfit2
  hitc BrainSphere.Cyto: 0
BrainSpheres; tcplfit2 BMD at benchmark response (1.349*SD of baseline controls)
  BMD BrainSphere.Cyto: 94 µM

## CN(C)C(=O)C(CCN1CCC(O)(c2ccc(Cl)cc2)CC1)(c1ccccc1)c1ccccc1 [Loperamide]
2D rat cortical cultures
  Bioactivity in the rNFA (in words): alter multiple parameters of network formation
  hitc CCTE_Shafer_MEA_dev_active_electrodes_number: 1
  hitc CCTE_Shafer_MEA_dev_burst_duration_mean: 1
  hitc CCTE_Shafer_MEA_dev_burst_rate: 1
  hitc CCTE_Shafer_MEA_dev_bursting_electrodes_number: 1
  hitc CCTE_Shafer_MEA_dev_correlation_coefficient_mean: 1
  hitc CCTE_Shafer_MEA_dev_firing_rate_mean: 1
  hitc CCTE_Shafer_MEA_dev_inter_network_spike_interval_mean: 0
  hitc CCTE_Shafer_MEA_dev_interburst_interval_mean: 1
  hitc CCTE_Shafer_MEA_dev_mutual_information_norm: 1
  hitc CCTE_Shafer_MEA_dev_network_spike_duration_std: 1
  hitc CCTE_Shafer_MEA_dev_network_spike_number: 1
  hitc CCTE_Shafer_MEA_dev_network_spike_peak: 1
  hitc CCTE_Shafer_MEA_dev_per_burst_interspike_interval: 1
  hitc CCTE_Shafer_MEA_dev_per_burst_spike_percent: 1
  hitc CCTE_Shafer_MEA_dev_per_network_spike_spike_number_mean: 1
  hitc CCTE_Shafer_MEA_dev_per_network_spike_spike_percent: 1
  hitc CCTE_Shafer_MEA_dev_spike_duration_mean: 1
2D rat cortical cultures; read-out: ac50 CCTE_Shafer_MEA_dev_active_electrodes_number
  AC50: 196 nM
2D rat cortical cultures; read-out: ac50 CCTE_Shafer_MEA_dev_burst_duration_mean
  AC50: 33 nM
2D rat cortical cultures; read-out: ac50 CCTE_Shafer_MEA_dev_burst_rate
  AC50: 42 nM
2D rat cortical cultures; read-out: ac50 CCTE_Shafer_MEA_dev_bursting_electrodes_number
  AC50: 117 nM
2D rat cortical cultures; read-out: ac50 CCTE_Shafer_MEA_dev_correlation_coefficient_mean
  AC50: 766 nM
2D rat cortical cultures; read-out: ac50 CCTE_Shafer_MEA_dev_firing_rate_mean
  AC50: 63 nM
2D rat cortical cultures; read-out: ac50 CCTE_Shafer_MEA_dev_interburst_interval_mean
  AC50: 249 nM
2D rat cortical cultures; read-out: ac50 CCTE_Shafer_MEA_dev_mutual_information_norm
  AC50: 112 nM
2D rat cortical cultures; read-out: ac50 CCTE_Shafer_MEA_dev_network_spike_duration_std
  AC50: 262 nM
2D rat cortical cultures; read-out: ac50 CCTE_Shafer_MEA_dev_network_spike_number
  AC50: 33 nM
2D rat cortical cultures; read-out: ac50 CCTE_Shafer_MEA_dev_network_spike_peak
  AC50: 1810 nM
2D rat cortical cultures; read-out: ac50 CCTE_Shafer_MEA_dev_per_burst_interspike_interval
  AC50: 67 nM
2D rat cortical cultures; read-out: ac50 CCTE_Shafer_MEA_dev_per_burst_spike_percent
  AC50: 244 nM
2D rat cortical cultures; read-out: ac50 CCTE_Shafer_MEA_dev_per_network_spike_spike_number_mean
  AC50: 766 nM
2D rat cortical cultures; read-out: ac50 CCTE_Shafer_MEA_dev_per_network_spike_spike_percent
  AC50: 2300 nM
2D rat cortical cultures; read-out: ac50 CCTE_Shafer_MEA_dev_spike_duration_mean
  AC50: 511 nM
BrainSpheres
  Cytotoxicity / cell viability in the BrainSphere resazurin assay (in words): positive hit call for cytotoxicity
  AC50: 18100 nM
BrainSpheres; Homo sapiens, 312 h
  AC50: 18000 nM
BrainSpheres; human
  ACC BrainSphere.Cyto: 8.7 µM
  BMD BrainSphere.Cyto: 8.4 µM
  Cytotoxicity / cell viability in the BrainSphere resazurin assay (in words): appeared to demonstrate cytotoxic effects at 30 and 90 µM
  Cytotoxicity hit: 1*
  hitc BrainSphere.Cyto: 1
